# Active and inactive are the calls of the source. The calls are words filed in the database; no cut-off is given here.
# What was measured:
# Platelet = test: Antiplatelet activity in human platelet rich plasma assessed as inhibition of arachidonic acid-induced platelet aggregation preincubated for 2 mins followed by arachidonic acid addition by turbidimetric method; type: functional, cell-based
# Plasma [1] = test: Anticoagulant activity in human platelet poor plasma assessed as activated partial thromboplastin time at 100 uM incubated for 15 mins at room temperature and subsequent incubation for 2 mins at 37 degreeC followed by cephalin addition and measured after 2 mins for every secs in presence of CaCl2; type: functional
# Plasma [2] = test: Anticoagulant activity in human platelet poor plasma assessed as prothrombin time at 100 uM incubated for 15 mins at room temperature and subsequent incubation for 2 mins at 37 degreeC followed by PBS addition and measured after 3 mins for every secs in presence of calcium thromboplastin; type: functional
# [3] = Hemolytic activity in erythrocytes (unknown origin) at 100 uM after 3 hrs by spectrophotometric analysis; type: ADME, cell-based, Erythrocyte; conditions: read-out: Activity
# [4] = Mutagenicity in Salmonella typhimurium TA97 at 500 uM by Ames test; type: toxicity; conditions: salmonella enterica subsp. enterica serovar typhimurium
# [5] = Mutagenicity in Salmonella typhimurium TA98 at 500 uM by Ames test; type: toxicity; conditions: salmonella enterica subsp. enterica serovar typhimurium
# [6] = Mutagenicity in Salmonella typhimurium TA100 at 500 uM by Ames test; type: toxicity; conditions: salmonella enterica subsp. enterica serovar typhimurium
# [7] = Mutagenicity in Salmonella typhimurium TA102 at 500 uM by Ames test; type: toxicity; conditions: salmonella enterica subsp. enterica serovar typhimurium
# [8] = Genotoxicity in Escherichia coli PQ35 at 500 uM after overnight incubation by SOS chromotest; type: toxicity
# [9] = Genotoxicity in Escherichia coli PQ37 at 500 uM after overnight incubation by SOS chromotest; type: toxicity
# NCI-H929 [10] = test: Cytotoxicity against human NCI-H929 cells assessed as reduction in cell viability at […] after 48 hrs by CCK8 assay; type: functional, cell-based
# RPMI-8226 [11] = test: Cytotoxicity against human RPMI8226 cells assessed as reduction in cell viability at 42 nM after 48 hrs by CCK8 assay relative to control; type: functional
# NCI-H929 [12] = test: Potentiation of bortezomib-induced cytotoxicity against human NCI-H929 cells assessed as reduction in cell viability at […] after 48 hrs in presence of bortezomib by CCK8 assay; type: functional, cell-based
# RPMI-8226 [13] = test: Potentiation of bortezomib-induced cytotoxicity against human RPMI8226 cells assessed as reduction in cell viability at […] after 48 hrs in presence of bortezomib by CCK8 assay; type: functional
# NCI-H929 [14] = test: Cell cycle arrest in human NCI-H929 cells assessed as accumulation at G0/G1 phase at […] in presence of bortezomib after 48 hrs by propidium iodide/RNase staining based flow cytometric method relative to bortezomib alone; type: functional
# NCI-H929 [15] = test: Cell cycle arrest in human NCI-H929 cells assessed as accumulation at S phase at […] in presence of bortezomib after 48 hrs by propidium iodide/RNase staining based flow cytometric method relative to bortezomib alone; type: functional
# RPMI-8226 [16] = test: Cell cycle arrest in human RPMI8226 cells assessed as accumulation at G0/G1 phase at […] after 48 hrs by propidium iodide/RNase staining based flow cytometric method; type: functional
# RPMI-8226 [17] = test: Cell cycle arrest in human RPMI8226 cells assessed as accumulation at S phase at […] after 48 hrs by propidium iodide/RNase staining based flow cytometric method; type: functional
# NCI-H929 [18] = test: Induction of apoptosis in human NCI-H929 cells assessed as early apoptotic cells at […] after 48 hrs by Annexin-V/propidium iodide staining based flow cytometric method (reference value: 17.1%); type: functional
# NCI-H929 [19] = test: Induction of apoptosis in human NCI-H929 cells assessed as late apoptotic cells at […] after 48 hrs by Annexin-V/propidium iodide staining based flow cytometric method (reference value: 0.23%); type: functional
# NCI-H929 [20] = test: Induction of apoptosis in human NCI-H929 cells assessed as necrotic cells at […] after 48 hrs by Annexin-V/propidium iodide staining based flow cytometric method (reference value: 0.0034%); type: functional
# NCI-H929 [21] = test: Induction of apoptosis in human NCI-H929 cells assessed as viable cells at […] after 48 hrs by Annexin-V/propidium iodide staining based flow cytometric method (reference value: 82.6%); type: functional; conditions: NCI-H929, 48 h, read-out: Activity
# NCI-H929 [22] = test: Induction of apoptosis in human NCI-H929 cells assessed as early apoptotic cells at […] after 48 hrs in presence of bortezomib by Annexin-V/propidium iodide staining based flow cytometric method (reference value: 17.1%); type: functional
# NCI-H929 [23] = test: Induction of apoptosis in human NCI-H929 cells assessed as late apoptotic cells at […] after 48 hrs in presence of bortezomib by Annexin-V/propidium iodide staining based flow cytometric method (reference value: 0.23%); type: functional
# NCI-H929 [24] = test: Induction of apoptosis in human NCI-H929 cells assessed as necrotic cells at […] after 48 hrs in presence of bortezomib by Annexin-V/propidium iodide staining based flow cytometric method (reference value: 0.0034%); type: functional
# NCI-H929 [25] = test: Induction of apoptosis in human NCI-H929 cells assessed as viable cells at […] after 48 hrs in presence of bortezomib by Annexin-V/propidium iodide staining based flow cytometric method (reference value: 82.6%); type: functional; conditions: NCI-H929, 48 h, read-out: Activity
# RPMI-8226 [26] = test: Induction of apoptosis in human RPMI8226 cells assessed as early apoptotic cells at […] after 48 hrs in presence of bortezomib by Annexin-V/propidium iodide staining based flow cytometric method (reference value: 1.05%); type: functional
# RPMI-8226 [27] = test: Induction of apoptosis in human RPMI8226 cells assessed as late apoptotic cells at […] after 48 hrs in presence of bortezomib by Annexin-V/propidium iodide staining based flow cytometric method (reference value: 0.21%); type: functional
# RPMI-8226 [28] = test: Induction of apoptosis in human RPMI8226 cells assessed as necrotic cells at […] after 48 hrs in presence of bortezomib by Annexin-V/propidium iodide staining based flow cytometric method (reference value: 0.090%); type: functional
# RPMI-8226 [29] = test: Induction of apoptosis in human RPMI8226 cells assessed as viable cells at […] after 48 hrs in presence of bortezomib by Annexin-V/propidium iodide staining based flow cytometric method (reference value: 98.7%); type: functional; conditions: RPMI-8226, 48 h, read-out: Activity
# RPMI-8226 [30] = test: Cell cycle arrest in human RPMI8226 cells assessed as accumulation at G0/G1 phase at […] in presence of bortezomib after 48 hrs by propidium iodide/RNase staining based flow cytometric method relative to bortezomib; type: functional
# RPMI-8226 [31] = test: Cell cycle arrest in human RPMI8226 cells assessed as accumulation at S phase at […] in presence of bortezomib after 48 hrs by propidium iodide/RNase staining based flow cytometric method relative to bortezomib; type: functional
# RPMI-8226 [32] = test: Cell cycle arrest in human RPMI8226 cells assessed as reduction in accumulation at G2/M phase at […] in presence of bortezomib after 48 hrs by propidium iodide/RNase staining based flow cytometric method relative to bortezomib; type: functional
smiles,measurement,setting,value
COc1ccc(-c2noc(CC(=O)O)c2-c2ccc(OC)cc2)cc1 [MOFEZOLAC],IC50,Platelet,0.45 µM
same,APTT,Plasma [1],50.8 s
same,PT,Plasma [2],14.2 s
same,"hemolysis at 3 h, 100 µM",[3],0%
same,Activity,[4],Non-Toxic
same,Activity,[5],Non-Toxic
same,Activity,[6],Non-Toxic
same,Activity,[7],Non-Toxic
same,Activity,[8],Non-Toxic
same,Activity,[9],Non-Toxic
same,Activity,NCI-H929 [10],inactive
same,Activity,RPMI-8226 [11],1%
same,Activity,NCI-H929 [12],inactive
same,Activity,RPMI-8226 [13],56%
same,Activity,NCI-H929 [14],15%
same,Activity,NCI-H929 [15],15%
same,Activity,RPMI-8226 [16],inactive
same,Activity,RPMI-8226 [17],inactive
same,Activity,NCI-H929 [18],18.7%
same,Activity,NCI-H929 [19],0.13%
same,Activity,NCI-H929 [20],0%
same,viability at […],NCI-H929 [21],81.1%
same,Activity,NCI-H929 [22],64.3%
same,Activity,NCI-H929 [23],0.24%
same,Activity,NCI-H929 [24],0%
same,viability at […],NCI-H929 [25],35.4%
same,Activity,RPMI-8226 [26],7.86%
same,Activity,RPMI-8226 [27],0.31%
same,Activity,RPMI-8226 [28],0.006%
same,viability at […],RPMI-8226 [29],91.8%
same,Activity,RPMI-8226 [30],Active
same,Activity,RPMI-8226 [31],Active
same,Activity,RPMI-8226 [32],Active

# — ChEMBL document CHEMBL4422618, “Translational impact of novel widely pharmacological characterized mofezolac-derived COX-1 inhibitors combined with bortezomib on human multiple myeloma cell lines viability” (Eur J Med Chem, 2019)
